The values that follow come from patent publication US20210198269A1, “INHIBITORS OF GLUCOSE TRANSPORTERS (GLUTs)” (LEAD DISCOVERY CENTER GMBH, priority 2018, published 2021).

What all share (assay type): cell-based
The target in one assay is T1, GLUT2 (Homo sapiens, UniProt P11168).
T1 sequence (P11168 1-524): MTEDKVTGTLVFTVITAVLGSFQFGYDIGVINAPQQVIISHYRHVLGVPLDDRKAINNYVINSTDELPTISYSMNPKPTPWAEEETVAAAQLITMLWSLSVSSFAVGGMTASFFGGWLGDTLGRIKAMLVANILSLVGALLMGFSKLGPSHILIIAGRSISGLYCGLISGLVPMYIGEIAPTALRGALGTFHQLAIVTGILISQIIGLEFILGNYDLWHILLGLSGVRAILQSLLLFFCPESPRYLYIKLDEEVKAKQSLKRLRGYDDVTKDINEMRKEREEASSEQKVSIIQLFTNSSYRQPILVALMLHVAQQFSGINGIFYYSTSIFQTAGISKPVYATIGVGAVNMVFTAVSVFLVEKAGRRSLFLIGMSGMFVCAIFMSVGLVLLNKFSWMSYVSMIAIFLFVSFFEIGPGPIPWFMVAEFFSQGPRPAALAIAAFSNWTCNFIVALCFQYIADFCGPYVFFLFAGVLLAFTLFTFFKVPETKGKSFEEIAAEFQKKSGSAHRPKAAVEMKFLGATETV
Description: GLUT2 transporter activity assay in CHO-hGLUT2 cells (indirect, intracellular ATP levels). The note with it: CHO-hGLUT2 cell line; read-out: GLUT2 inhibitory activity (IC50). The source says:
(§1) GLUT 1, 2, 3 and 4 Transporter Activity Assays
(§2) Assays were based on the specificity assays reported by Kapoor et al., Proceedings of the National Academy of Sciences 2016, 113 (17) 4711-4716. For GLUT1, GLUT2, GLUT3 and GLUT4 specificity testing DLD1, CHO-hGLUT2, DLD-1-GLUT1−/− and CHO-hGLUT4 cell lines were used.
Example 8-3: Indirect Measurement of GLUT2 (SLC2A2) Activity by Quantification of Intracellular ATP Levels
A combination of small-molecule inhibitors of mitochondrial electron transport chain and glucose catabolism synergistically suppress ATP production and impair cellular viability (Ulanovskaya et al., 2008, 2011; Liu, et al. 2001). We therefore used CHOK1 cells overexpressing SLC2A2 (CHOK1-SLC2A2) in combination with an oxidative phosphorylation inhibitor (Rotenon) to identify GLUT2 inhibitors. CHOK1-SLC2A2 cells were purchased from creative biogene (catNo: CSC-SC014484) and maintained in RPMI1640 supplemented with 10% FBS and 2 mM L-Glutamine. For the Glut2-ATP-Assay, 7,500 cells were seeded in black, clear bottom 384-well plates directly in glucose- and phenolred-free RPMI1640 medium supplemented with 1% FCS and 2 mM L-glutamine and cultured overnight to reduce intracellular ATP levels. Next day, cells were washed and incubated with […] and compounds or DMSO and 2.5 mM fructose in glucose- and phenolred-free RPMI1640 medium for 40 min. The CellTiter-Glo® Luminescence Viability Assay from Promega was used to measure ATP levels. Luminescence was measured with a Victor Multilabel plate reader (Perkin Elmer). Blank values were subtracted from all readings and values were normalized to the DMSO control.

The target in a further assay is T2, GLUT4 (Homo sapiens, UniProt P14672).
T2 sequence (P14672 1-509): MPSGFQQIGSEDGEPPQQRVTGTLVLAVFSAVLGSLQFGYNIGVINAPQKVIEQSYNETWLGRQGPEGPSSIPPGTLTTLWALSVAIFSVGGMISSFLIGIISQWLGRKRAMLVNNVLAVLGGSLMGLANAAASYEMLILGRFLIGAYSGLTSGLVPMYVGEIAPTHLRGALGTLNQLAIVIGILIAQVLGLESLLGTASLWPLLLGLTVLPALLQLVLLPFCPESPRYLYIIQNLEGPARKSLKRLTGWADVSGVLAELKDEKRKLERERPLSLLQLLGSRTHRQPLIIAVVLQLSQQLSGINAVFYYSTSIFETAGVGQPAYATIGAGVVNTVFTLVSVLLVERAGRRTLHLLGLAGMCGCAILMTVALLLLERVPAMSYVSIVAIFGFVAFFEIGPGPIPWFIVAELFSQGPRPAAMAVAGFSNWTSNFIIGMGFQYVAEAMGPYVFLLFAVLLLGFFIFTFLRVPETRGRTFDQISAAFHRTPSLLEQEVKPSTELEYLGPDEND
Description: GLUT4 transporter activity assay (2-DG uptake) in CHO-hGLUT4 cells. The note with it: CHO-hGLUT4 cell line; read-out: GLUT4 inhibitory activity (IC50). As for the experimental part: CHOK1-SLC2A4 cells were generated by transfection of CHOK1 cells with pCMV6-Entry-GLUT4 (Origene #SC125240) using Lipofectamin2000 according to the supplier's instructions. Briefly, 1.5E5 cells/well CHOK1 cells were seeded in 6-well cell culture plates. After overnight incubation, DNA-lipid complexes (2 μg plasmid DNA, DNA:lipid ratio 1:10) were prepared in OptiMEM and then added to the cells. After 5 days incubation, 800 μg G418 was added to the culture medium to generate a stable polyclone. For monoclone selection, single cells were re-plated in 96-well plates, expanded and selected by transgene overexpression and functional performance.
as §1, §2
(§3) Assay protocols for 2-deoxy-Glucose (2-DG) Uptake Assay with DLD1 or DLD1-Glut1(−/−) cells or 7,000 CHOK1-SLC2A4 cells lines:
(§4) 14,000 DLD1 or DLD1-Glut1(−/−) cells or 7,000 CHOK1-SLC2A4 cells were seeded in black, clear bottom 384-well plates in glucose- and phenolred-free RPMI1640 medium supplemented with 1% FCS and 2 mM L-glutamine and allowed to attach overnight. Next day, cells were washed and incubated with compounds or DMSO and 1 mM 2-DG in glucose- and phenolred-free RPMI1640 medium for 30 min. Cells were then washed and lysed in 0.06 M HCl and 1% CHAPS for 15 min at 65° C. The amount of 2-DG in the lysate was determined by means of enzyme-coupled assay. For this 16 U/mL glucose-6-phosphate dehydrogenase, 0.2 U/mL diaphorase, 0.1 mM NADP^+ and 10 μM resazurin were added to the lysates. Resorufin fluorescence was determined as a measure of 2-DG uptake at ex/em 535/590 nm with a Victor Multilabel plate reader (Perkin Elmer). Blank values were subtracted from all readings and values were normalized to the DMSO control.

Another assay has as its target T3, GLUT1 (Homo sapiens, UniProt P11166).
T3 construct: host or cells: DLD-1 (DLD1) cells
T3 sequence (P11166 1-492): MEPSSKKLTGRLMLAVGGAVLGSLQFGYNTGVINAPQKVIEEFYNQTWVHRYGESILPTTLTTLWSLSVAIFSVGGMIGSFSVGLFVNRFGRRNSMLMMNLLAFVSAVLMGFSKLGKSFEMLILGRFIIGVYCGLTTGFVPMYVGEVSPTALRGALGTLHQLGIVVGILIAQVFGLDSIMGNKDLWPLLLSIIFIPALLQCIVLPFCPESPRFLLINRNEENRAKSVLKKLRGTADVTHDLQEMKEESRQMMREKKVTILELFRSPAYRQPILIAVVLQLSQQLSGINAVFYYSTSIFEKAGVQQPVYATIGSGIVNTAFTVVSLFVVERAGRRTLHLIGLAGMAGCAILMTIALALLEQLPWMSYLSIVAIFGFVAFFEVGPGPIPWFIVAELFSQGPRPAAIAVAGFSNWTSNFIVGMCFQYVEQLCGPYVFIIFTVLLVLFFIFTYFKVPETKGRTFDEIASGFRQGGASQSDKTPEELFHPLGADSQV
The experiment in a line: GLUT1 transporter activity assay (2-DG uptake) in DLD1 cells. The note with it: DLD1 cell line; read-out: GLUT1 inhibitory activity (IC50).
Text: as §1, §2, §3, §4

For a further assay, the target named is T4, GLUT3 (Homo sapiens, UniProt P11169).
T4 construct: host or cells: DLD-1-GLUT1(-/-) cells
T4 sequence (P11169 1-496): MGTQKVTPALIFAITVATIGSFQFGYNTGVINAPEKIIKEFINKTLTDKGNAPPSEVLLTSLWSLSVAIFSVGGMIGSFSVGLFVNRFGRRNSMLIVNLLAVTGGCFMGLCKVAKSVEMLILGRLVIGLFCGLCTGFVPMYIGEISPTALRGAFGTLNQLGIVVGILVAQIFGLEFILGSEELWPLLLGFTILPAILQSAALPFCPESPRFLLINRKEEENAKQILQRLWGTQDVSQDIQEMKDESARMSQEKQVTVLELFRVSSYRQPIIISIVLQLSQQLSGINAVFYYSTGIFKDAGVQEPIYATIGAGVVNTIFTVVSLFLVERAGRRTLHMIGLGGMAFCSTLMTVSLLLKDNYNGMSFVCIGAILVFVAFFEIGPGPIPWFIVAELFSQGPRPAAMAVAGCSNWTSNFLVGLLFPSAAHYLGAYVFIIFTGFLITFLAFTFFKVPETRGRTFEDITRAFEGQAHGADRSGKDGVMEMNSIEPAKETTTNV
Description: GLUT3 transporter activity assay (2-DG uptake) in DLD-1-GLUT1-/- cells. The note with it: DLD-1-GLUT1-/- cell line; read-out: GLUT3 inhibitory activity (IC50).
Text: as §1, §2, §3, §4

pIC50: −log10 of the molar value. A value given as a limit tells only on which side of the number the result lay.

In general, pIC50 refers to −log10 of the IC50, conventionally taken in molar units. Regarding `COC(=O)c1cccc(N2C(=O)NC3CC2(C)Oc2c(OCc4ccccc4)cccc23)c1` (centres unmarked) [Compound A37, methyl 3-(10-(benzyloxy)-2-methyl-4-oxo-5,6-dihydro-2H-2,6-methanobenzo[g][1,3,5]oxadiazocin-3(4H)-yl)benzoate], the pIC50 is under 4.60 on GLUT2, 4.60 to 5.00 at GLUT4, 5.40 to 6.00 on GLUT1 and 5.40 to 6.00 on GLUT3.

In the case of `Cc1ccc(CCNC(=O)c2cccc(N3C(=O)NC4CC3(C)Oc3c(OCc5c(C)noc5C)cccc34)c2)cc1` (centres unmarked) [Compound A15, 3-(10-((3,5-Dimethylisoxazol-4-yl)methoxy)-2-methyl-4-oxo-5,6-dihydro-2H-2,6-methanobenzo[g][1,3,5]oxadiazocin-3(4H)-yl)-N-(4-methylphenethyl)benzamide], the pIC50 on GLUT2 is 4.60 to 5.00; at GLUT4, 5.00 to 5.40; on GLUT1 it was 6.00 to 6.52; at GLUT3, 6.00 to 6.52.

For `Cc1ccc(CCNC(=O)c2cccc(N3C(=O)NC4CC3(C)Oc3c(OCc5nccn5C)cccc34)c2)cc1` (centres unmarked) [Compound A16, 3-(2-Methyl-10-((1-methyl-1H-imidazol-2-yl)methoxy)-4-oxo-5,6-dihydro-2H-2,6-methanobenzo[g][1,3,5]oxadiazocin-3(4H)-yl)-N-(4-methylphenethyl)benzamide], the negative logarithm of the IC50 (pIC50) on GLUT2 is under 4.60; at GLUT4, under 4.60; on GLUT1, 5.40 to 6.00.

As to `Cc1ccc(CCNC(=O)c2cccc(N3C(=O)NC4CC3(C)Oc3c(OCc5ccccc5)cccc34)c2)cc1` (centres unmarked) [Compound A01, 3-(10-(Benzyloxy)-2-methyl-4-oxo-5,6-dihydro-2H-2,6-methanobenzo[g][1,3,5]oxadiazocin-3(4H)-yl)-N-(4-methylphenethyl)benzamide], the pIC50 on GLUT2 is 4.60 to 5.00; at GLUT4, 4.60 to 5.00; at GLUT1, at least 6.52; on GLUT3, at least 6.52.

On to `Cc1ccc(CCNC(=O)c2cccc(N3C(=O)NC4CC3(C)Oc3c(OCc5cccnc5)cccc34)c2)cc1` (centres unmarked) [Compound A10, 3-(2-Methyl-4-oxo-10-(pyridin-3-ylmethoxy)-5,6-dihydro-2H-2,6-methanobenzo[g][1,3,5]oxadiazocin-3(4H)-yl)-N-(4-methylphenethyl)benzamide], for which the pIC50 on GLUT2 is 5.00 to 5.40; on GLUT4, 5.00 to 5.40; on GLUT1, at least 6.52; at GLUT3 it was 6.00 to 6.52.

For `Cc1ccc(OCCNC(=O)c2cccc(N3C(=O)NC4CC3(C)Oc3c(OCc5ccccc5)cccc34)c2)cc1` (centres unmarked) [Compound A35, 3-(10-(benzyloxy)-2-methyl-4-oxo-5,6-dihydro-2H-2,6-methanobenzo[g][1,3,5]oxadiazocin-3(4H)-yl)-N-(2-(4-methylphenoxy)ethyl)benzamide], the pIC50 is under 4.60 on GLUT2, 4.60 to 5.00 on GLUT4, 6.00 to 6.52 at GLUT1 and 6.00 to 6.52 on GLUT3.

For `CC12CC(NC(=O)N1c1cccc(C(=O)NCCOc3ccccc3)c1)c1cccc(OCc3ccccc3)c1O2` (centres unmarked) [Compound A21, 3-(10-(benzyloxy)-2-methyl-4-oxo-5,6-dihydro-2H-2,6-methanobenzo[g][1,3,5]oxadiazocin-3(4H)-yl)-N-(2-phenoxyethyl)benzamide], the pIC50 at GLUT2 was under 4.60; at GLUT4, 4.60 to 5.00; on GLUT1, 5.40 to 6.00; at GLUT3, 5.40 to 6.00.

In the case of `Cc1ccc(CCNC(=O)c2cccc(N3C(=O)NC4CC3(C)Oc3c(OCc5ccccn5)cccc34)c2)cc1` (centres unmarked) [Compound A11, 3-(2-Methyl-4-oxo-10-(pyridin-2-ylmethoxy)-5,6-dihydro-2H-2,6-methanobenzo[g][1,3,5]oxadiazocin-3(4H)-yl)-N-(4-methylphenethyl)benzamide], the pIC50 on GLUT2 is 5.00 to 5.40; on GLUT4, 5.40 to 6.00; on GLUT1, at least 6.52; on GLUT3, at least 6.52.

On to `Cc1ccc(CCN(C)C(=O)c2cccc(N3C(=O)NC4CC3(C)Oc3c(OCc5ccccc5)cccc34)c2)cc1` (centres unmarked) [Compound A23, 3-(10-(benzyloxy)-2-methyl-4-oxo-5,6-dihydro-2H-2,6-methanobenzo[g][1,3,5]oxadiazocin-3(4H)-yl)-N-methyl-N-(4-methylphenethyl)benzamide], for which the pIC50 is under 4.60 on GLUT2, 5.00 to 5.40 on GLUT4, 6.00 to 6.52 at GLUT1 and 6.00 to 6.52 at GLUT3.
